Molecules are shown by their SMILES. Values joined by “and” are separate entries in the source; they are usually repeats but may differ in a detail not shown here. Equal values may be shown once.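 1) Cells in 96-well plates. 2) Compound, 48 h, 5 concentrations. 3) Linear interpolation between surrounding doses. 4) Unreached endpoint = highest concentration. GI50 is the concentration that inhibits growth by half. The concentration for full growth arrest is given as TGI.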

TGI and GI50 data for ten compounds are collected here from PubChem BioAssay (NCI).

Among the test systems are SR leukemia; OVCAR-8 ovarian; SW-620 colon; NCI/ADR-RES ovarian; A498 renal; RXF 393 renal; SF-295 CNS; U251 CNS; 786-0 renal; UO-31 renal.
Assay in all cases: NCI anticancer screen, dose series, 48 h

On to `COc1ccc(C(=O)O[C@@H]2CCN3CC[C@H](C)[C@H]23)cc1`, for which the TGI in the experiment on SR leukemia, with OVCAR-8 ovarian, with SW-620 colon, in the experiment on NCI/ADR-RES ovarian, in the experiment on A498 renal and with RXF 393 renal was greater than 100 µM throughout. Further, the TGI with SF-295 CNS, with U251 CNS, with 786-0 renal and in the experiment on UO-31 renal was greater than 100 µM each time.

Turning to `O=C(/C=C/c1cccnc1)c1ccccc1`, the GI50 is 2 µM in the experiment on SR leukemia; 12.2 µM with OVCAR-8 ovarian; 1.92 µM in the experiment with SW-620 colon; 14.3 µM in the experiment on NCI/ADR-RES ovarian; 11.7 µM with A498 renal; 10.9 µM in the experiment on RXF 393 renal. In addition, the GI50 in the experiment with SF-295 CNS was 14.3 µM; with U251 CNS it was 3.85 µM; with 786-0 renal it was 7.9 µM; in the experiment on UO-31 renal, 11.4 µM. Moreover, the TGI stood at 6.21 µM in the experiment on SR leukemia; 25.9 µM in the experiment on OVCAR-8 ovarian; 4.21 µM in the experiment with SW-620 colon; 36 µM in the experiment with NCI/ADR-RES ovarian; 23.9 µM in the experiment on A498 renal; 23.2 µM with RXF 393 renal. Further, the TGI in the experiment on SF-295 CNS came out at 29.3 µM; in the experiment with U251 CNS, 15.1 µM; in the experiment on 786-0 renal it was 21.4 µM; with UO-31 renal, 25.5 µM.

For `CC[C@@]1(O)C(=O)OCc2c1cc1n(c2=O)Cc2cc3c(OC)cccc3nc2-1`, the TGI was 1.35 µM in the experiment on SR leukemia; 1.9 µM with OVCAR-8 ovarian; 5.65 µM in the experiment with SW-620 colon; greater than 100 µM with NCI/ADR-RES ovarian; 2.65 µM with SF-295 CNS; 1.13 µM in the experiment with 786-0 renal. The GI50 was 0.0405 µM in the experiment on SW-620 colon; 0.00301 µM in the experiment with A498 renal; 4.13e-05 µM with RXF 393 renal; 0.00186 µM with SF-295 CNS; 0.00858 µM with U251 CNS; 0.00394 µM with 786-0 renal. Further, the GI50 in the experiment on UO-31 renal is 0.00535 µM.

As for `CO[C@@H]1[C@H](N(C)C(=O)c2ccccc2)C[C@@H]2O[C@]1(C)n1c3ccccc3c3c4c(c5c6ccccc6n2c5c31)C(=O)NC4=O`, the GI50 in the experiment with SR leukemia was 0.504 µM; in the experiment with OVCAR-8 ovarian, 94.6 µM; with SW-620 colon, 0.732 µM; with NCI/ADR-RES ovarian, 5.75 µM; with A498 renal it was 0.206 µM; with SF-295 CNS, 1.45 µM. Further, the GI50 is 3.6 µM in the experiment on U251 CNS, 0.744 µM in the experiment on 786-0 renal and 0.211 µM with UO-31 renal. Further, the TGI in the experiment with SR leukemia is greater than 100 µM; in the experiment on OVCAR-8 ovarian, greater than 100 µM; in the experiment with SW-620 colon, greater than 100 µM; in the experiment with NCI/ADR-RES ovarian, greater than 100 µM; with A498 renal, 0.661 µM; in the experiment with SF-295 CNS, greater than 100 µM. In addition, the TGI in the experiment on U251 CNS is greater than 100 µM; with 786-0 renal it was greater than 100 µM; in the experiment with UO-31 renal, 1.46 µM.

As to `CSc1nc(SC)c2c(C)cn(Cc3ccccc3)c2n1`, the TGI with SR leukemia, with OVCAR-8 ovarian, with SW-620 colon, with NCI/ADR-RES ovarian, in the experiment on A498 renal and in the experiment with SF-295 CNS was greater than 100 µM each time. For the same compound, the TGI in the experiment with U251 CNS, in the experiment on 786-0 renal and in the experiment on UO-31 renal was greater than 100 µM in each case.

As for `C#CCOCCCC(=O)O`, the TGI in the experiment on SR leukemia, with OVCAR-8 ovarian, with SW-620 colon, in the experiment with NCI/ADR-RES ovarian, with A498 renal and with RXF 393 renal was greater than 100 µM each time. For the same compound, the TGI with SF-295 CNS, with U251 CNS and in the experiment on 786-0 renal was greater than 100 µM each time.

Consider `Oc1c(CCl)cc(Cl)cc1Cc1cc(Cl)cc(Cc2cc(Cl)cc(CCl)c2O)c1O`, for which the GI50 is 2.85 µM in the experiment on SR leukemia; 3.62 µM in the experiment with OVCAR-8 ovarian; 3.92 µM in the experiment with SW-620 colon; 2.2 µM in the experiment on NCI/ADR-RES ovarian; 2.59 µM in the experiment on RXF 393 renal; 3.66 µM in the experiment with SF-295 CNS. The values for the GI50 in the experiment on U251 CNS, in the experiment with 786-0 renal and in the experiment on UO-31 renal were 2.83 µM, 4.61 µM and 2.92 µM, respectively. Besides, the TGI in the experiment on SR leukemia is 41 µM; in the experiment on OVCAR-8 ovarian, 30.7 µM; in the experiment on SW-620 colon, 14.2 µM; in the experiment on NCI/ADR-RES ovarian it was 7.29 µM; with RXF 393 renal, 9.43 µM; in the experiment on SF-295 CNS, 34.7 µM. Besides, the TGI came out at 21.1 µM with U251 CNS, 25.3 µM with 786-0 renal and 11.8 µM with UO-31 renal.

For `OC1CCC(COC(c2ccccc2)(c2ccccc2)c2ccccc2)O1` (stereo not given), the TGI in the experiment with SR leukemia was greater than 10 µM; in the experiment on OVCAR-8 ovarian, 35.8 µM; with SW-620 colon, 37.2 µM; with NCI/ADR-RES ovarian it was 48.3 µM; in the experiment on A498 renal, 35.8 µM; with SF-295 CNS, 31.8 µM. The TGI in the experiment on U251 CNS was 36 µM; in the experiment with 786-0 renal, 35.2 µM; in the experiment on UO-31 renal it was 33.2 µM.

As for `COC(=O)CC12CC(NC(=O)c3csc([C@@H](C[C@H](C(C)C)N(C)C(=O)[C@@H](NC(=O)[C@H]4CCCCN4C)C(C)C)OC(C)=O)n3)(C1)C2`, the GI50 in the experiment with SR leukemia was 0.00187 µM and 0.00333 µM; with OVCAR-8 ovarian, 0.00545 µM and 0.0131 µM; in the experiment with SW-620 colon it was 0.0035 µM and 0.0102 µM; with NCI/ADR-RES ovarian, 0.0659 µM and 0.122 µM; with A498 renal it was 0.00384 µM and 0.00545 µM; with SF-295 CNS it was 0.00327 µM and 0.00942 µM. Also, the GI50 was 0.0036 µM and 0.013 µM with U251 CNS; 0.00606 µM and 0.014 µM in the experiment with 786-0 renal. The TGI in the experiment on SR leukemia was greater than 33.3 µM; with OVCAR-8 ovarian it was greater than 33.3 µM; in the experiment on SW-620 colon it was greater than 33.3 µM; in the experiment on A498 renal, 0.0224 µM; with SF-295 CNS, greater than 33.3 µM; in the experiment on U251 CNS it was greater than 33.3 µM. The TGI in the experiment with 786-0 renal and in the experiment with UO-31 renal was greater than 33.3 µM throughout.

As for `CN(CCNc1ccc(C(=N)N)cc1)c1ccc(C(=N)N)cc1`, the GI50 in the experiment on SR leukemia is 28.6 µM; in the experiment with OVCAR-8 ovarian, 50 µM; in the experiment with SW-620 colon it was greater than 100 µM; in the experiment on NCI/ADR-RES ovarian it was 63.6 µM; with A498 renal, 4.43 µM; in the experiment on SF-295 CNS it was 5.8 µM. The GI50 in the experiment with U251 CNS is 30.6 µM; in the experiment with 786-0 renal, greater than 100 µM; in the experiment with UO-31 renal, 54.8 µM. In addition, the TGI with SR leukemia was greater than 100 µM; in the experiment with OVCAR-8 ovarian, greater than 100 µM; in the experiment with SW-620 colon, greater than 100 µM; in the experiment on NCI/ADR-RES ovarian, greater than 100 µM; in the experiment on A498 renal it was 44.7 µM; in the experiment with SF-295 CNS, 60.2 µM. Also, the TGI in the experiment on U251 CNS, with 786-0 renal and in the experiment with UO-31 renal was greater than 100 µM in each case.
